From PubChem BioAssay AID2060497 (Molecular Pharmacology Branch, DTP, NCI, 2025)

System: 317291-083-R-J1-PDC complex spheroids, viability
Assay: Anticancer human tumor 317291-083-R-J1-PDC patient-derived soft tissue sarcoma cell line growth inhibition [GQUAD]
Settings: for IC50: curve of first compound; for viability, T/C: stronger effect = lower value; active = viability on the fitted dose curve at most 10% of control; inactive = the rest
Summary of the method: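 Multi-cell-type spheroids of tumor cells with HUVEC and mesenchymal stem cells, treated with drug combinations. Concentrations descend in half-log steps from near clinical Cmax, or from 10 microM where Cmax is unknown; viability read-out.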

[1] = second compound 0.0316 µM, first compound 0.0316 µM
[2] = second compound 0.0316 µM, first compound 0.1 µM
[3] = second compound 0.0316 µM, first compound 0.316 µM
[4] = second compound 0.0316 µM, first compound 1 µM
[5] = second compound 0.0316 µM, first compound 3.16 µM
[6] = second compound 0.0316 µM, first compound 10 µM
[7] = second compound 0.1 µM, first compound 0.0316 µM
[8] = second compound 0.1 µM, first compound 0.1 µM
[9] = second compound 0.1 µM, first compound 0.316 µM
[10] = second compound 0.1 µM, first compound 1 µM
[11] = second compound 0.1 µM, first compound 3.16 µM
[12] = second compound 0.1 µM, first compound 10 µM
[13] = second compound 0.316 µM, first compound 0.0316 µM
[14] = second compound 0.316 µM, first compound 0.1 µM
[15] = second compound 0.316 µM, first compound 0.316 µM
[16] = second compound 0.316 µM, first compound 1 µM
[17] = second compound 0.316 µM, first compound 3.16 µM
[18] = second compound 0.316 µM, first compound 10 µM
[19] = second compound 1 µM, first compound 0.0316 µM
[20] = second compound 1 µM, first compound 0.1 µM
[21] = second compound 1 µM, first compound 0.316 µM
[22] = second compound 1 µM, first compound 1 µM
[23] = second compound 1 µM, first compound 3.16 µM
[24] = second compound 1 µM, first compound 10 µM
[25] = second compound 3.16 µM, first compound 0.0316 µM
[26] = second compound 3.16 µM, first compound 0.1 µM
[27] = second compound 3.16 µM, first compound 0.316 µM
[28] = second compound 3.16 µM, first compound 1 µM
[29] = second compound 3.16 µM, first compound 3.16 µM
[30] = second compound 3.16 µM, first compound 10 µM
[31] = second compound 10 µM, first compound 0.0316 µM
[32] = second compound 10 µM, first compound 0.1 µM
[33] = second compound 10 µM, first compound 0.316 µM
[34] = second compound 10 µM, first compound 1 µM
[35] = second compound 10 µM, first compound 3.16 µM
[36] = second compound 10 µM, first compound 10 µM
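Also: spheroids exposed to compounds for one week before readout.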
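For viability, T/C in this document: percent viability relative to DMSO vehicle wells taken as 100%.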

C=CCn1c(=O)c2cnc(Nc3ccc(N4CCN(C)CC4)cc3)nc2n1-c1cccc(C(C)(C)O)n1 + CN(C)c1ccc(Nc2c3ccc(NC(=O)CCN4CCCC4)cc3nc3cc(NC(=O)CCN4CCCC4)ccc23)cc1
< 31.6 nM: IC50 (second compound 1 µM) | IC50 (second compound 3.16 µM) | IC50 (second compound 10 µM)
110 nM: IC50 (second compound 0.1 µM)
inactive: viability, T/C [1] 87.1% | viability, T/C [2] 64.3% | viability, T/C [3] 21.7% | viability, T/C [4] 14.2% | viability, T/C [5] 8.78% | viability, T/C [7] 82.5% | viability, T/C [8] 52% | viability, T/C [9] 25.7% | viability, T/C [10] 12.4% | viability, T/C [13] 51.3% | viability, T/C [14] 34.4% | viability, T/C [15] 14.4% | viability, T/C [19] 31.1% | viability, T/C [20] 14.4%
147 nM: IC50 (second compound 0.0316 µM)
34.6 nM: IC50 (second compound 0.316 µM)
active: viability, T/C [6] 8.84% | viability, T/C [11] 9.4% | viability, T/C [12] 8.71% | viability, T/C [16] 7.47% | viability, T/C [17] 7.01% | viability, T/C [18] 5.2% | viability, T/C [21] 8.51% | viability, T/C [22] 2.77% | viability, T/C [23] 1.74% | viability, T/C [24] 1.3% | viability, T/C [25] 2.02% | viability, T/C [26] 1.03% | viability, T/C [27] 0.41% | viability, T/C [28] 3.62% | viability, T/C [29] 0.31% | viability, T/C [30] 0.14% | viability, T/C [31] 0.27% | viability, T/C [32] 0.13% | viability, T/C [33] 0.18% | viability, T/C [34] 0.15% | viability, T/C [35] 0.21% | viability, T/C [36] 0.15%

CC(C)(O)C1CCC(Nc2ccc3ncc(-c4cccc(C(F)(F)F)c4)n3n2)CC1 (stereo not drawn) + CN(C)c1ccc(Nc2c3ccc(NC(=O)CCN4CCCC4)cc3nc3cc(NC(=O)CCN4CCCC4)ccc23)cc1
active: viability, T/C [5] 0.9% | viability, T/C [6] 0.94% | viability, T/C [11] 0.49% | viability, T/C [12] 0.46% | viability, T/C [17] 0.66% | viability, T/C [18] 0.64% | viability, T/C [22] 3.69% | viability, T/C [23] 0.2% | viability, T/C [24] 0.13% | viability, T/C [25] 5.54% | viability, T/C [26] 1.6% | viability, T/C [27] 6.22% | viability, T/C [28] 0.39% | viability, T/C [29] 0.12% | viability, T/C [30] 0.29% | viability, T/C [31] 0.6% | viability, T/C [32] 0.45% | viability, T/C [33] 0.27% | viability, T/C [34] 0.46% | viability, T/C [35] 0.22% | viability, T/C [36] 0.31%
455 nM: IC50 (second compound 0.316 µM)
44.7 nM: IC50 (second compound 1 µM)
691 nM: IC50 (second compound 0.1 µM)
789 nM: IC50 (second compound 0.0316 µM)
< 31.6 nM: IC50 (second compound 3.16 µM) | IC50 (second compound 10 µM)
inactive: viability, T/C [1] 103% | viability, T/C [2] 106% | viability, T/C [3] 99.8% | viability, T/C [4] 37.1% | viability, T/C [7] 97.5% | viability, T/C [8] 92.2% | viability, T/C [9] 102% | viability, T/C [10] 27.6% | viability, T/C [13] 65.9% | viability, T/C [14] 65.7% | viability, T/C [15] 72% | viability, T/C [16] 11.3% | viability, T/C [19] 59.3% | viability, T/C [20] 25.4% | viability, T/C [21] 28.7%

COc1ncnc(C2CC2)c1-c1ncc2cnn(Cc3ccc(-c4nc(C(F)(F)F)cn4C(C)C)cc3)c2n1 + CN(C)c1ccc(Nc2c3ccc(NC(=O)CCN4CCCC4)cc3nc3cc(NC(=O)CCN4CCCC4)ccc23)cc1
> 10000 nM: IC50 (second compound 0.0316 µM) | IC50 (second compound 0.1 µM)
inactive: viability, T/C [1] 88.5% | viability, T/C [2] 77.1% | viability, T/C [3] 69% | viability, T/C [4] 70.3% | viability, T/C [5] 64.3% | viability, T/C [6] 59.9% | viability, T/C [7] 79.9% | viability, T/C [8] 61.4% | viability, T/C [9] 65.9% | viability, T/C [10] 61.4% | viability, T/C [11] 51.6% | viability, T/C [12] 60.2% | viability, T/C [13] 48.2% | viability, T/C [14] 44.2% | viability, T/C [15] 41.9% | viability, T/C [16] 37.4% | viability, T/C [17] 37.4% | viability, T/C [18] 36.1% | viability, T/C [19] 32.4% | viability, T/C [20] 50.2% | viability, T/C [21] 35.7% | viability, T/C [22] 16.5% | viability, T/C [23] 26.6% | viability, T/C [24] 17.3% | viability, T/C [25] 33.4%
< 31.6 nM: IC50 (second compound 0.316 µM) | IC50 (second compound 1 µM) | IC50 (second compound 3.16 µM) | IC50 (second compound 10 µM)
active: viability, T/C [26] 2.38% | viability, T/C [27] 3.48% | viability, T/C [28] 1.13% | viability, T/C [29] 2.41% | viability, T/C [30] 1.37% | viability, T/C [31] 0.61% | viability, T/C [32] 0.24% | viability, T/C [33] 0.23% | viability, T/C [34] 0.23% | viability, T/C [35] 0.28% | viability, T/C [36] 0.22%

CC(C)n1c(=O)n(C)c2cnc3cc(F)c(-c4ccc(OCCCN5CCCCC5)nc4)cc3c21 + Cc1[nH]c2ccc(F)cc2c1-c1nc2c3cccnc3c3ncccc3c2[nH]1
7880 nM: IC50 (second compound 3.16 µM)
8620 nM: IC50 (second compound 0.316 µM)
8610 nM: IC50 (second compound 0.1 µM)
inactive: viability, T/C [1] 104% | viability, T/C [2] 111% | viability, T/C [3] 92.5% | viability, T/C [4] 97.1% | viability, T/C [5] 86.2% | viability, T/C [6] 50.5% | viability, T/C [7] 104% | viability, T/C [8] 101% | viability, T/C [9] 96.3% | viability, T/C [10] 96.7% | viability, T/C [11] 92.9% | viability, T/C [12] 43.3% | viability, T/C [13] 88.6% | viability, T/C [14] 103% | viability, T/C [15] 105% | viability, T/C [16] 85% | viability, T/C [17] 106% | viability, T/C [18] 42.9% | viability, T/C [19] 114% | viability, T/C [20] 108% | viability, T/C [21] 93.7% | viability, T/C [22] 96.3% | viability, T/C [23] 92.7% | viability, T/C [24] 53.5% | viability, T/C [25] 80.7% | viability, T/C [26] 103% | viability, T/C [27] 97.6% | viability, T/C [28] 72.4% | viability, T/C [29] 93.8% | viability, T/C [30] 39.7% | viability, T/C [31] 99.2% | viability, T/C [32] 107% | viability, T/C [33] 83.5% | viability, T/C [34] 92.5% | viability, T/C [35] 85.2% | viability, T/C [36] 50%
> 10000 nM: IC50 (second compound 0.0316 µM) | IC50 (second compound 1 µM) | IC50 (second compound 10 µM)
